Test results reported in patent US10117430B2, “Malononitrile compounds for controlling animal pests” (BASF SE, priority 2012, dated 2018).

Tests used:
Type in all cases: in vivo
[1] = test system: Green Peach Aphid (Myzus persicae); test: B.13 Green peach aphid test on sprayed bell pepper plants; conditions: 120 h, in comparison with untreated controls, after 5 days
Excerpt: B.13 Green Peach Aphid (Myzus persicae)
The active compounds were formulated in cyclohexanone as a 10,000 ppm solution supplied in tubes. The tubes were inserted into an automated electrostatic sprayer equipped with an atomizing nozzle and they served as stock solutions for which lower dilutions were made in 50% acetone:50% water (v/v). A nonionic surfactant (Kinetic®) was included in the solution at a volume of 0.01% (v/v). Bell pepper plants at the first true-leaf stage were infested prior to treatment by placing heavily infested leaves from the main colony on top of the treatment plants. Aphids were allowed to transfer overnight to accomplish an infestation of 30-50 aphids per plant and the host leaves were removed. The infested plants were then sprayed by an automated electrostatic plant sprayer equipped with an atomizing spray nozzle. The plants were dried in the sprayer fume hood, removed, and then maintained in a growth room under fluorescent lighting in a 24-hr photoperiod at about 25° C. and about 20-40% relative humidity. Aphid mortality on the treated plants, relative to mortality on untreated control plants, was determined after 5 days.

[2] = test system: Rice brown plant hopper (Nilaparvata lugens); test: B.11 Rice brown plant hopper test on sprayed rice seedlings; conditions: in comparison with untreated controls, after 72 hours
Summary of the method: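 Compounds formulated in 50:50 acetone:water with 0.1% vol/vol surfactant and sprayed onto potted rice seedlings. Air-dried plants were caged, infested with 10 adults and held at about 28-29 °C, 50-60% RH. Percent mortality scored after 72 hours.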

[3] = test system: Silverleaf Whitefly (Bemisia argentifolii); test: B.5 Silverleaf whitefly test on sprayed cotton plants; conditions: 72 h, in comparison with untreated controls, 3 days after treatment
Summary of the method: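 Cotyledon-stage cotton plants were electrostatically sprayed with compound diluted from a 10,000 ppm cyclohexanone stock into 50% acetone/water with 0.01% nonionic surfactant. After drying, 10–12 adult whiteflies (3–5 days old) were released onto each plant. Mortality was scored after 3 days at 25 °C and 20–40% RH against untreated plants.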

[4] = test system: Orchid Thrips (Dichromothrips corbetti); test: B.4 Orchid thrips floral-immersion test; conditions: 96 h, in comparison with untreated controls, after 4 days
Summary of the method: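 Orchid flowers dipped in 300 ppm compound (acetone:water 1:1, 0.01% surfactant), dried, then caged with 10-15 adult D. corbetti from a lab colony. Held under continuous light at about 28° C. Live thrips counted after 4 days; mortality extrapolated from pre-treatment numbers.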

[5] = test system: Mediterranean Fruitfly (Ceratitis capitata); test: B.2 Mediterranean fruitfly microtiter diet test, egg and larval mortality; conditions: 120 h, in comparison with untreated controls, egg and larval mortality after 5 days
Summary of the method: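 Microtiter plates held insect diet with 50-80 C. capitata eggs; compounds in 75% water/25% DMSO were sprayed onto the diet at various concentrations, two replicates. Plates kept about 5 days at 28±1 °C and 80±5% RH, then egg and larval mortality scored visually.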

[6] = test system: Southern Armyworm (Spodoptera eridania); test: B.6 Southern armyworm test on sprayed lima bean plants; conditions: 96 h, 500 ppm, in comparison with untreated controls, 4 days after treatment
Summary of the method: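 Lima bean plants at the 1st true leaf stage were sprayed with cyclohexanone-based solutions diluted in 50% acetone/water with 0.01% nonionic surfactant. Once dry, plants were bagged with 10–11 larvae and held at 25 °C and 20–40% RH. Mortality and reduced feeding were scored at 4 days against untreated plants.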

[7] = test system: Boll Weevil (Anthonomus grandis); test: B.9 Boll weevil microtiter diet test, egg and larval mortality; conditions: 120 h, in comparison with untreated controls, egg and larval mortality after 5 days
Summary of the method: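 Insect diet carrying 20-30 A. grandis eggs per well was sprayed with compounds formulated in 75% water/25% DMSO, at various concentrations with two replicates. Plates were held at about 23±1° C and 50±5% RH for 5 days. Egg and larval mortality were then scored visually.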

N#CC(C#N)(Cc1ccc(C(F)(F)F)nc1)c1cc(F)cc(F)c1 [II-34]
≥ 75%: mortality at 300 ppm [1] | mortality at 300 ppm [2] | mortality at 500 ppm [3] | mortality at 500 ppm [4] | mortality at 2500 ppm [5] | mortality at 500 ppm [6] | mortality at 2500 ppm [7]
